This is an account of results in patent publication US20240043404A1 (AbbVie Inc., priority 2009, published 2024).

The assay relates to RS4;11 cells. Kind of assay: RS4;11 cell viability assay (CellTiter Glo).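 Further: acute lymphoblastic leukemia line RS4,11, EC50 derived from percentage of viable cells after treatment relative to untreated controls, cell killing taken as a measure of Bcl-2 inhibition.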 The class given is cell-based, human. The following applies: Homo sapiens, RS4-11, 48 h, 50,000 cells per well, 10% human serum, 48 hours; read-out: RS4; 11 EC50 Values. For orientation: Cellular ATP, detected with luciferase, serves as a proxy for viable cell number.
Protocol: The acute lymphoblastic leukemia (ALL) cell line RS4;11 was used as the primary human cell line to assess the cellular activity of Bcl-2 selective agents in vitro and their efficacy in vivo.
Cell cytotoxicity EC50 values were assessed using CellTiter Glo (Promega) according to the manufacturer's recommendations. The EC50 values were determined as a percentage of viable cells following treatment compared to the untreated control cells.
On to `CC1(C)CCC(CN2CCN(c3ccc(C(=O)NS(=O)(=O)c4ccc(NC5CCC(N(CCC#N)C6CC6)CC5)c([N+](=O)[O-])c4)c(Oc4cnc5[nH]ccc5c4)c3)CC2)=C(c2ccc(Cl)cc2)C1` (stereo not shown) [Example 340, 4-(4-{[2-(4-chlorophenyl)-4,4-dimethylcyclohex-1-en-1-yl]methyl}piperazin-1-yl)-N-{[4-({4-[(2-cyanoethyl)(cyclopropyl)amino]cyclohexyl}amino)-3-nitrophenyl]sulfonyl}-2-(1H-pyrrolo[2,3-b]pyridin-5-yloxy)benzamide], for which the EC50 came out at 56.5 nM.

In the case of `CC1(C)CCC(CN2CCN(c3ccc(C(=O)NS(=O)(=O)c4cnc(OCC5CCc6nccn6C5)c(Cl)c4)c(Oc4cnc5[nH]ccc5c4)c3)CC2)=C(c2ccc(Cl)cc2)C1` (stereo not shown) [Example 342, 4-(4-{[2-(4-chlorophenyl)-4,4-dimethylcyclohex-1-en-1-yl]methyl}piperazin-1-yl)-N-{[5-chloro-6-(5,6,7,8-tetrahydroimidazo[1,2-a]pyridin-6-ylmethoxy)pyridin-3-yl]sulfonyl}-2-(1H-pyrrolo[2,3-b]pyridin-5-yloxy)benzamide], the EC50 amounted to 50.9 nM.

`CC1(C)CCC(CN2CCN(c3ccc(C(=O)NS(=O)(=O)c4cnc(OC[C@H]5C[C@H]6C[C@@H]5C[C@@]6(C)O)c(Cl)c4)c(Oc4cnc5[nH]ccc5c4)c3)CC2)=C(c2ccc(Cl)cc2)C1` [Example 343, N-[(5-chloro-6-{[(1R,2S,4R,5R)-5-hydroxy-5-methylbicyclo[2.2.1]hept-2-yl]methoxy}pyridin-3-yl)sulfonyl]-4-(4-{[2-(4-chlorophenyl)-4,4-dimethylcyclohex-1-en-1-yl]methyl}piperazin-1-yl)-2-(1H-pyrrolo[2,3-b]pyridin-5-yloxy)benzamide]: the EC50 amounted to 127 nM.

`O=C(NS(=O)(=O)c1cnc(OCC2(F)CCN(C3COC3)CC2)c(Cl)c1)c1ccc(N2CCN(CC3=C(c4ccc(Cl)cc4)CC4(CC3)CC4)CC2)cc1Oc1cnc2[nH]ccc2c1` [Example 345, N-[(5-chloro-6-{[4-fluoro-1-(oxetan-3-yl)piperidin-4-yl]methoxy}pyridin-3-yl)sulfonyl]-4-(4-{[5-(4-chlorophenyl)spiro[2.5]oct-5-en-6-yl]methyl}piperazin-1-yl)-2-(1H-pyrrolo[2,3-b]pyridin-5-yloxy)benzamide]: the EC50 was 9.25 nM.

Take `CC1(C)CCC(CN2CCN(c3ccc(C(=O)NS(=O)(=O)c4ccc(NC5CCC(N6CCC(F)(F)C6)CC5)c([N+](=O)[O-])c4)c(Oc4cnc5[nH]ccc5c4)c3)CC2)=C(c2ccc(Cl)cc2)C1` (stereo not shown) [Example 346, 4-(4-{[2-(4-chlorophenyl)-4,4-dimethylcyclohex-1-en-1-yl]methyl}piperazin-1-yl)-N-[(4-{[4-(3,3-difluoropyrrolidin-1-yl)cyclohexyl]amino}-3-nitrophenyl)sulfonyl]-2-(1H-pyrrolo[2,3-b]pyridin-5-yloxy)benzamide]: the EC50 was determined as 190 nM.

In the case of `CC1(C)CCC(CN2CCN(c3ccc(C(=O)NS(=O)(=O)c4ccc(NC5CCC(NC6CC6(F)F)CC5)c([N+](=O)[O-])c4)c(Oc4cnc5[nH]ccc5c4)c3)CC2)=C(c2ccc(Cl)cc2)C1` (stereo not shown) [Example 349, 4-(4-{[2-(4-chlorophenyl)-4,4-dimethylcyclohex-1-en-1-yl]methyl}piperazin-1-yl)-N-{[4-({4-[(2,2-difluorocyclopropyl)amino]cyclohexyl}amino)-3-nitrophenyl]sulfonyl}-2-(1H-pyrrolo[2,3-b]pyridin-5-yloxy)benzamide], the EC50 worked out at 23.1 nM.

Regarding `CC1(C)CCC(CN2CCN(c3ccc(C(=O)NS(=O)(=O)c4ccc(OCC5CCC6(CC5)COC6)c([N+](=O)[O-])c4)c(Oc4cnc5[nH]ccc5c4)c3)CC2)=C(c2ccc(Cl)cc2)C1` [Example 351, 4-(4-{[2-(4-chlorophenyl)-4,4-dimethylcyclohex-1-en-1-yl]methyl}piperazin-1-yl)-N-{[3-nitro-4-(2-oxaspiro[3.5]non-7-ylmethoxy)phenyl]sulfonyl}-2-(1H-pyrrolo[2,3-b]pyridin-5-yloxy)benzamide], the EC50 worked out at 2.06 nM.
